# Laboratory results published in the OligoGym collection.
# Where “and” joins values, the source holds several entries; their conditions need not be identical. Identical values can stand only once. After the bases stand the sugars from the 5' end (letter, count) and the backbone: PS all phosphorothioate, else s phosphorothioate and o phosphodiester by linkage. Methylation of C is not given here. e = 2'-O-(2-methoxyethyl) (MOE); k = constrained ethyl (cEt); d = 2'-deoxy (DNA)
# Experiments:
# [1] = target: APOL1; settings: ASO
# [2] = target: SOD1; settings: ASO
sequence,measurement,setting,value
"GTGTATTTCTTGATGT (sugars kkddddkekekddddd, PS)",target mRNA inhibition,"[1]; A431, 2 µM",95%
"AACGCAATGCTGACTT (sugars k2 d4 e3 k2 d5, PS)",target mRNA inhibition,"[1]; A431, 2 µM",82%
"TGTTATATTTGATCCT (sugars kdddddkekekddddd, PS)",target mRNA inhibition,"[1]; A431, 2 µM",79%
"AGTATTGCCAGCTAAG (sugars kkddddkekekddddd, PS)",target mRNA inhibition,"[1]; A431, 2 µM",65%
"ATTCTATTAGAGGGCT (sugars kkddddkdkdkddddd, PS)",target mRNA inhibition,"[1]; A431, 2 µM",74%
"GAAGATTGGCTCTGGC (sugars kkddddkekekddddd, PS)",target mRNA inhibition,"[1]; A431, 2 µM",48%
"ATTCTATTAGAGGGCT (sugars k3 d5 k3 d5, PS)",target mRNA inhibition,"[1]; A431, 2 µM",95%
"CACTTTATACCAGTGT (sugars kkkddddkekekdddd, PS)",target mRNA inhibition,"[1]; A431, 2 µM",11%
"GAATTATGGAATTGCA (sugars k3 d4 k3 e1 d5, PS)",target mRNA inhibition,"[1]; A431, 2 µM",90%
"AGTTTTGTAAGTGCAA (sugars kkkddddkekekdddd, PS)",target mRNA inhibition,"[1]; A431, 2 µM",77%
"AGTATTGCCAGCTAAG (sugars kkdddddkekeddddd, PS)",target mRNA inhibition,"[1]; A431, 2 µM",86%
"GAGTATTGTTTTTGTG (sugars kkddddkekekkdddd, PS)",target mRNA inhibition,"[1]; A431, 2 µM",85%
"TCAGGTGACTACATTT (sugars k4 d9 k3, PS)",target mRNA inhibition,"[1]; A431, 0.0625 µM",47%
same,target mRNA inhibition,"[1]; A431, 0.25 µM",67%
same,target mRNA inhibition,"[1]; A431, 1 µM",84%
"GTTTTGTAAGTGCAAC (sugars kkkddddkekekdddd, PS)",target mRNA inhibition,"[1]; A431, 2 µM",59%
"GCTTTAAACTCAGGTG (sugars kkdddddkekeddddd, PS)",target mRNA inhibition,"[1]; A431, 0.0156 µM",6%
same,target mRNA inhibition,"[1]; A431, 0.0625 µM",35%
same,target mRNA inhibition,"[1]; A431, 0.25 µM",67%
same,target mRNA inhibition,"[1]; A431, 1 µM",85%
same,target mRNA inhibition,"[1]; A431, 2 µM",91%
"CCGTCAATATATTCTT (sugars kkkddddkekeddddd, PS)",target mRNA inhibition,"[1]; A431, 2 µM",97%
"GGAATTATGGAATTGC (sugars kkddddkdkdkddddd, PS)",target mRNA inhibition,"[1]; A431, 2 µM",89%
"AAGTATTGCCAGCTAA (sugars kkdddddkekeddddd, PS)",target mRNA inhibition,"[1]; A431, 2 µM",73%
"CTAATTTTCTGACTGT (sugars k2 d4 e4 k2 d4, PS)",target mRNA inhibition,"[1]; A431, 2 µM",88%
"GTGAGTATTGTTTTTG (sugars kkkddddkekekdddd, PS)",target mRNA inhibition,"[1]; A431, 2 µM",85%
"GCTAATTTTCTGACTG (sugars kkddddkdkdkddddd, PS)",target mRNA inhibition,"[1]; A431, 0.0156 µM",10%
same,target mRNA inhibition,"[1]; A431, 0.0625 µM",40%
same,target mRNA inhibition,"[1]; A431, 0.25 µM",71%
same,target mRNA inhibition,"[1]; A431, 1 µM",87%
same,target mRNA inhibition,"[1]; A431, 2 µM",93%
"CGTCAATATATTCTTT (sugars kkddddkdkdkddddd, PS)",target mRNA inhibition,"[1]; A431, 2 µM",91%
"GTTATATTTGATCCTC (sugars kkkddddkekekdddd, PS)",target mRNA inhibition,"[1]; A431, 2 µM",66%
"CTTTAAACTCAGGTGA (sugars kkdddddkekeddddd, PS)",target mRNA inhibition,"[1]; A431, 2 µM",87%
"CTATTAGAGGGCTAGT (sugars kkddddkekekkdddd, PS)",target mRNA inhibition,"[1]; A431, 2 µM",25%
"GAACATTGAAACACCA (sugars k4 d9 k3, PS)",target mRNA inhibition,"[1]; A431, 0.0625 µM",39%
same,target mRNA inhibition,"[1]; A431, 0.25 µM",70%
same,target mRNA inhibition,"[1]; A431, 1 µM",89%
"CATTCAGAATTTCCAC (sugars k2 d4 e3 k2 d5, PS)",target mRNA inhibition,"[1]; A431, 2 µM",78%
"GGTAAGAGCGATGGGA (sugars k3 d10 k3, PS)",target mRNA inhibition,"[1]; A431, 0.0625 µM",79%
same,target mRNA inhibition,"[1]; A431, 0.25 µM",93%
same,target mRNA inhibition,"[1]; A431, 1 µM",97%
"TTCTATTAGAGGGCTA (sugars kkdddddkekeddddd, PS)",target mRNA inhibition,"[1]; A431, 0.0156 µM",26%
same,target mRNA inhibition,"[1]; A431, 0.0625 µM",56%
same,target mRNA inhibition,"[1]; A431, 0.25 µM",81%
same,target mRNA inhibition,"[1]; A431, 1 µM",92%
same,target mRNA inhibition,"[1]; A431, 2 µM",94%
"TTATGAAATTATTGGT (sugars kkkddddkekekdddd, PS)",target mRNA inhibition,"[1]; A431, 2 µM",86%
"TGTTCTAACTCTTGGG (sugars k3 d4 k3 e1 d5, PS)",target mRNA inhibition,"[1]; A431, 2 µM",89%
"TTCTACAGCTAGCAGGA (sugars e2 k2 d8 k2 e3, PS)",target mRNA inhibition,"[2]; HepG2, 0.1875 µM",18%
same,target mRNA inhibition,"[2]; HepG2, 0.75 µM",48%
same,target mRNA inhibition,"[2]; HepG2, 3 µM",66%
same,target mRNA inhibition,"[2]; HepG2, 4 µM",74%
same,target mRNA inhibition,"[2]; HepG2, 12 µM",86%
"TCGCCCTTCAGCACGCA (sugars e2 k2 d9 k2 e2, PS)",target mRNA inhibition,"[2]; HepG2, 4 µM",63% and 60% and 54%
same,target mRNA inhibition,"[2]; HepG2, 5 µM",61% and 58% and 71%
same,target mRNA inhibition,"[2]; HepG2, 12 µM",74%
"TTCTTTTAATAGCCTCATAA (sugars e5 d10 e5, PS)",target mRNA inhibition,"[2]; HepG2, 5 µM",5%
"TTTAATGTTTATCAGGAT (sugars e5 d8 e5, linkages s1 o3 s9 o2 s2)",target mRNA inhibition,"[2]; A431, 0.12 µM",13%
same,target mRNA inhibition,"[2]; A431, 0.6 µM",19%
same,target mRNA inhibition,"[2]; A431, 3 µM",22%
same,target mRNA inhibition,"[2]; A431, 15 µM",7%
same,target mRNA inhibition,"[2]; HepG2, 0.222 µM",10%
same,target mRNA inhibition,"[2]; HepG2, 0.667 µM",24%
same,target mRNA inhibition,"[2]; HepG2, 2 µM",28%
same,target mRNA inhibition,"[2]; HepG2, 6 µM",53%
"AGGATACATTTCTACAG (sugars e2 k2 d9 k2 e2, PS)",target mRNA inhibition,"[2]; HepG2, 0.1875 µM",9%
same,target mRNA inhibition,"[2]; HepG2, 0.75 µM",52%
same,target mRNA inhibition,"[2]; HepG2, 3 µM",81%
same,target mRNA inhibition,"[2]; HepG2, 4 µM",77%
same,target mRNA inhibition,"[2]; HepG2, 12 µM",95%
